Test results from patent publication US8410310B2, “Trypsin-like serine protease inhibitors, and their preparation and use” (The Medicines Company (Leipzig) GmbH, priority 2006, dated 2013).

Assays:
[1] = Terminal half-life in dogs; settings: dog, in vivo
Thrombin = Thrombin (Homo sapiens, UniProt P00734); test: Determination of inhibition constants for thrombin; type: biochemical
Summary of the method: (§1)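 Chromogenic assays measured absorbance at 405 nm: zero-order reactions were stopped with acetic acid after 20 min, and pseudo-first-order rates were recorded kinetically at equilibrium. Ki was obtained by Dixon linear regression or by fitting to the competitive-inhibition rate equation, averaging at least two determinations.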

[2] = Terminal half-life in rats; settings: rat, in vivo
plasmin = plasmin (Homo sapiens, UniProt P00747); test: Determination of inhibition constants for plasmin; type: biochemical; set-up: purchased Calbiochem; settings: 25° C., substrate Chromozym PL, pH 8.0; read-out: Plasmin [Ki]
plasmin, sequence (P00747 581-810 limits assumed): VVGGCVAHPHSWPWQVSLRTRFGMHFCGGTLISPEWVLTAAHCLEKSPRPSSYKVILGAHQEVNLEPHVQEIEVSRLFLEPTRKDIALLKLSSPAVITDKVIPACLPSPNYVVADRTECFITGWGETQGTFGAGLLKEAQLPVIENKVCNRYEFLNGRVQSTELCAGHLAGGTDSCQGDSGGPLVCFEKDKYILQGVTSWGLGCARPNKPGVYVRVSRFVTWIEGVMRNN
plasmin, sequence (P00747 97-580 partner limits assumed): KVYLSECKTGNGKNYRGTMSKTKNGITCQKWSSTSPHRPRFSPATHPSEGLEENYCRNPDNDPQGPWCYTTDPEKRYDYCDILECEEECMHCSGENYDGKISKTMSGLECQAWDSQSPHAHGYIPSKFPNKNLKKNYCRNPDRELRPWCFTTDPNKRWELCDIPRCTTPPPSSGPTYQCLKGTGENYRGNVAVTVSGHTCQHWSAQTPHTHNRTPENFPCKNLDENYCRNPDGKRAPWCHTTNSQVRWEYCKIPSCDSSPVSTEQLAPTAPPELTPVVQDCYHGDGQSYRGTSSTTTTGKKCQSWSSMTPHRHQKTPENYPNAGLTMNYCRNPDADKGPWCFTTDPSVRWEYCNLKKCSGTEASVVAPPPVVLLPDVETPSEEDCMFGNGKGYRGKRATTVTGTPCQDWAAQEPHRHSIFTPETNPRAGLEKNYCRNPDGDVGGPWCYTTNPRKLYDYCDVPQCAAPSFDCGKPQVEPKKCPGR
Summary of the method: as §1

Compound: N=C(N)c1ccc(CNC(=O)[C@H](Cc2cccc(CN)c2)NC(=O)[C@@H](CCCc2ccccc2)NS(=O)(=O)Cc2cccc(C(=O)O)c2)cc1 [compound 3, 3-HOOC-Bzls-d-Ppg-Phe(3-Ame)-4-Amba×2 acetate]
- half-life [1]: 20 min
- Ki (Thrombin): > 1000 nM
- half-life [2]: 20 min
- Ki (plasmin): < 10 nM
